# Assay results as given in US20130137772A1, “HYDROXYPOLYAMINE SALTS” (priority 2011, published 2013).
# Values joined by “and” are separate entries in the source; they are usually repeats but may differ in a detail not shown here. Equal entries are not always repeated.
# Assays:
# [1] = Tissue distribution and metabolism: polyamine content of kidney, liver and pancreas via HPLC; format: in vivo, Female CD-1 mice; details: DEHSPM 18.6 mg/kg/d IP x 5 d
# Method: The tissue distribution and metabolism of DEHSPM, (HO)2DEHSPM HCl Salt and (HO)2DEHSPM Mesylate Salt in various organs were evaluated utilizing the following protocol:
# Tissue Distribution and Metabolism of DEHSPM, (HO)2DEHSPM HCl Salt and (HO)2DEHSPM Mesylate Salt
# • 1) DEHSPM, (HO)2DEHSPM HCl salt, and (HO)2DEHSPM mesylate salt were dissolved in sterile normal saline; the pH was not adjusted. • 2) Female CD-1 mice were given the drugs at equimolar dosages intraperitoneally once daily for 5 days. • 3) The animals, n=3-4 per group, were euthanized 4, 8, or 24 h post-last dose. • 4) The kidney, liver, and pancreas were removed and assessed for their polyamine content via HPLC analysis. • 5) The polyamine concentration data (mean±STD) are expressed as nmol/g wet weight of tissue. SPM, spermine; SPD, spermidine; PUT, putrescine; N.D., not determined. • 6) A one-tailed t test assuming unequal variance was performed on the tissue polyamine concentration data. A value of p<0.05 was considered significant.
# [2] = mice, three weeks after a seven day schedule; cited from earlier work
compound,measurement,setting,value
"CCNCCCCNCCCCNCCCCNCC [DEHSPM, Diethylhomospermine, reference compound]",DEHSPM concentration,"[1]; kidney, 4 h post-last dose",428 ± 95 nmol/g wet weight of tissue
same,PUT concentration,"[1]; kidney, 4 h post-last dose",0 ± 0 nmol/g wet weight of tissue
same,SPD concentration,"[1]; kidney, 4 h post-last dose",270 ± 61 nmol/g wet weight of tissue
same,SPM concentration,"[1]; kidney, 4 h post-last dose",243 ± 49 nmol/g wet weight of tissue
same,DEHSPM concentration,"[1]; kidney, 8 h post-last dose",425 ± 82 nmol/g wet weight of tissue
same,PUT concentration,"[1]; kidney, 8 h post-last dose",0 ± 0 nmol/g wet weight of tissue
same,SPD concentration,"[1]; kidney, 8 h post-last dose",159 ± 4 nmol/g wet weight of tissue
same,SPM concentration,"[1]; kidney, 8 h post-last dose",240 ± 52 nmol/g wet weight of tissue
same,DEHSPM concentration,"[1]; kidney, 24 h post-last dose",260 ± 19 nmol/g wet weight of tissue
same,PUT concentration,"[1]; kidney, 24 h post-last dose",0 ± 0 nmol/g wet weight of tissue
same,SPD concentration,"[1]; kidney, 24 h post-last dose",150 ± 37 nmol/g wet weight of tissue
same,SPM concentration,"[1]; kidney, 24 h post-last dose",223 ± 61 nmol/g wet weight of tissue
same,DEHSPM concentration,"[1]; liver, 4 h post-last dose",148 ± 46 nmol/g wet weight of tissue
same,PUT concentration,"[1]; liver, 4 h post-last dose",0 ± 0 nmol/g wet weight of tissue
same,SPD concentration,"[1]; liver, 4 h post-last dose",540 ± 77 nmol/g wet weight of tissue
same,SPM concentration,"[1]; liver, 4 h post-last dose",764 ± 49 nmol/g wet weight of tissue
same,DEHSPM concentration,"[1]; liver, 8 h post-last dose",144 ± 7 nmol/g wet weight of tissue
same,PUT concentration,"[1]; liver, 8 h post-last dose",0 ± 0 nmol/g wet weight of tissue
same,SPD concentration,"[1]; liver, 8 h post-last dose",710 nmol/g wet weight of tissue and 710 ± 132 nmol/g wet weight of tissue
same,SPM concentration,"[1]; liver, 8 h post-last dose",899 ± 40 nmol/g wet weight of tissue
same,DEHSPM concentration,"[1]; liver, 24 h post-last dose",79 ± 10 nmol/g wet weight of tissue
same,PUT concentration,"[1]; liver, 24 h post-last dose",21 ± 15 nmol/g wet weight of tissue
same,SPD concentration,"[1]; liver, 24 h post-last dose",578 nmol/g wet weight of tissue and 578 ± 150 nmol/g wet weight of tissue
same,SPM concentration,"[1]; liver, 24 h post-last dose",809 ± 45 nmol/g wet weight of tissue
same,DEHSPM concentration,"[1]; pancreas, 4 h post-last dose",330 ± 37 nmol/g wet weight of tissue
same,PUT concentration,"[1]; pancreas, 4 h post-last dose",43 ± 10 nmol/g wet weight of tissue
same,SPD concentration,"[1]; pancreas, 4 h post-last dose",6054 nmol/g wet weight of tissue and 6054 ± 878 nmol/g wet weight of tissue
same,SPM concentration,"[1]; pancreas, 4 h post-last dose",1000 nmol/g wet weight of tissue and 1000 ± 124 nmol/g wet weight of tissue
same,DEHSPM concentration,"[1]; pancreas, 8 h post-last dose",339 ± 59 nmol/g wet weight of tissue
same,PUT concentration,"[1]; pancreas, 8 h post-last dose",66 ± 33 nmol/g wet weight of tissue
same,SPD concentration,"[1]; pancreas, 8 h post-last dose",5789 nmol/g wet weight of tissue and 5789 ± 339 nmol/g wet weight of tissue
same,SPM concentration,"[1]; pancreas, 8 h post-last dose",1033 nmol/g wet weight of tissue and 1033 ± 290 nmol/g wet weight of tissue
same,DEHSPM concentration,"[1]; pancreas, 24 h post-last dose",284 ± 50 nmol/g wet weight of tissue
same,PUT concentration,"[1]; pancreas, 24 h post-last dose",62 ± 29 nmol/g wet weight of tissue
same,SPD concentration,"[1]; pancreas, 24 h post-last dose",5807 nmol/g wet weight of tissue and 5807 ± 262 nmol/g wet weight of tissue
same,SPM concentration,"[1]; pancreas, 24 h post-last dose",1146 nmol/g wet weight of tissue and 1146 ± 107 nmol/g wet weight of tissue
same,drug administered remaining in the liver and kidney as drug or metabolites,[2],35%
same,drug remaining in the animal in the form of HSPM,[2],90%
